Values of other authors as cited in EP3277282B1 (Istanbul Universitesi Rektorlugu, priority 2015, dated 2016).

What was measured:
[1] = given to human by oral route

- solubility in ethanol, methanol and organic solvents: soluble
Structure (SMILES): Cc1nc(Nc2ncc(C(=O)Nc3c(C)cccc3Cl)s2)cc(N2CCN(CCO)CC2)n1 [Dasatinib, N-(2-chloro-6-methylphenyl)-2-[[6-[4-(2-hydroxyethyl)-1-piperazinyl]-2-methyl]-4-pyrimidinyl]amino]-5-thiazolecarboxamide mono-hydrate]
- systemic side effects [1]: bleeding in the intestines
